Five compounds from patent US11597717B2, “Substituted imidazoles as PLXDC2 ligands” (Landos Biopharma, Inc., priority 2020, dated 2023) can be followed below.

One assay relates to CD4+ T cells. As to the kind of experiment: Immunological screening in vitro in CD4+ T cells (flow cytometry). The class given is cell-based, C57BL/6 mice. As to conditions: for significance of change in IFNγ/TNFα production relative to vehicle treated control: tested at 100 nM and 1 μM, P<0.05; for reduction in IFNγ production: 24 h, anti-CD3/CD28, PMA/ionomycin last 6 h. The source says:
(§1) Cell culture. Spleens were excised from C57BL/6 mice. Spleens were crushed between the frosted ends of microscope slides and filtered to provide a cellular suspension. Red blood cells were lysed through hypotonic lysis. Remaining cells were washed and filtered. CD4+ T cells were enriched within the suspension using magnetic sorting based negative selection. Cells were collected and plated within 96 well plates coated with anti-CD3/CD28 and cultured in the presence of PX-02, PX-04, PX-07, PX-08 and PX-09 at 0, 0.1 or 1 micromolar for 24 h. During the last 6 h of culture, cells were stimulated with phorbol 12-myristate-13-acetate (PMA) and ionomycin.
(§2) Immunological analysis. Cells were collected from 96 well plates and stained with a cocktail of antibodies for immunophenotyping by flow cytometry. Culture supernatant was collected and assayed for cytokine concentrations by cytometric bead array. Data was captured on a BD FACS Celesta and analyzed using FACSDiva.

Assay [1] relates to CD4+ T cells deficient in PLXDC2. The assay can be described thus: Specificity test in PLXDC2 deficient CD4+ T cells. The conditions noted are these: 100 nM or 1 μM; for IFNγ in the absence of PLXDC2: FIG. 4A; for TNFα in the absence of PLXDC2: FIG. 4B. It is filed as cell-based. As to the method: FIGS. 4A and 4B. Immunological validation of PX-04 and PX-07 specificity in CD4+ T cells. Percentages of IFNγ+(FIG. 4A) and TNFα+ (FIG. 4B) CD4+ T cells deficient in PLXDC2 were measured by flow cytometry after in vitro treatment of cells with PX compounds at concentrations of 0.1 and 1 micromolar. Statistical significance (P<0.05) is marked by asterisks.
as §1, §2
To determine the specificity of response to the PLXDC2 receptor, PX-04 and PX-07 were tested further in PLXDC2 deficient cells.

The subject of assay [2] is bone marrow-derived macrophages (BMDMs). As to the kind of experiment: Immunological screening in vitro in LPS-challenged bone marrow-derived macrophages (qRT-PCR, Luminex). It is filed as cell-based, C57BL/6 mice. The conditions noted are these: 0.1 and 1 micromolar, dose dependent; for IFNγ in the supernatant / IL-6 in the supernatant / TNF in the supernatant / concentration of IL-10 in the supernatant: Luminex, LPS 6 h; for IL-10 expression by RNA / expression of TNF by RNA: qRT-PCR, LPS 2 h. How it is done: Cell culture. Bone marrow was flushed from the femur and tibia of C57BL/6 mice. Bone marrow was then resuspended and filtered to provide a cellular suspension. Red blood cells were lysed through hypotonic lysis. Remaining cells were washed and filtered. Isolated cells were incubated in the presence of M-CSF for 7 days to differentiate cells into macrophages. Cells were harvested, plated within 24 well plates and cultured in the presence of PX-04 or PX-07 at 0, 0.1 or 1 micromolar for 12 h. During the last 2-6 h of culture, cells were stimulated with lipopolysaccharide. After stimulation for 2 h, cells were collected for the isolation of RNA. Gene expression was quantified by qRT-PCR. After stimulation for 6 h, supernatant was collected for detection of cytokines by Luminex.

Assay [3] concerns DBA/2 mice injected with STZ. As to the kind of experiment: STZ model of diabetic nephropathy. The class given is in vivo. As to conditions: daily oral gavage; for albumin/creatinine ratio in urine: 12 weeks of treatment. As to the method: STZ models. Streptozotocin (STZ) can be used to induce diabetes in both rats and mice. Mice were used for the assessment of nephropathy. DBA/2 mice were injected with 40 mg/kg STZ by intraperitoneal injection for 5 consecutive days. Mice were randomized to vehicle- or PX-04-treated arms after confirmation of diabetes on day 10 (n=12). PX-04 was administered daily for 12 weeks by oral gavage after a damage accrual stage. Separately, mice were randomized to vehicle- or PX-07-treated arms after confirmation of diabetes on day 10 (n=8). PX-07 was administered daily for 12 weeks by oral gavage after a damage accrual stage.
Kidney function. Kidney function was assessed by collection of urine and histological assessment of kidneys. Urine was assayed for albumin/creatinine ratio. Kidneys were scored using a composite scoring method (0-9) encompassing glomerular area, mesangial expansion, and renal fibrosis.

The subject of another assay is NZB/W F1 mice. The assay can be described thus: NZB/W F1 model of SLE. The class given is in vivo. The conditions noted are these: 10 mg/kg daily oral. As to the method: NZB/W F1 model. Twenty-four-week-old, female NZB/W F1 mice were randomized into vehicle or PX-04 treated arms based on baseline urine protein levels (n ═10). PX-04 was administered daily at 10 mg/kg for 12 weeks. Mice will be weighed on a weekly basis to update dosage formulation. Dosage will be calculated based off mean body weights.
Immunological analysis. Urine was collected for assay for protein content to test for kidney function at baseline, 6, and 12 weeks of treatment. Spleens were excised, crushed and filtered to provide a cellular suspension. Red blood cells were lysed. Cells were labeled with mixtures of extracellular (CD45, CD3, CD4) and intracellular (IL10) antibodies in a sequential live staining in 96-well plates in preparation for flow cytometry. Data was captured on a BD FACS Celesta and analyzed using FACSDiva.

In another assay the test system is mice challenged with DSS. The assay can be described thus: DSS model of colitis (acute IBD model). The class given is in vivo. As to the method: DSS model. Mice were given DSS in drinking water for seven days to induce disruption of the epithelial layer. At project initiation, mice were 8 weeks of age and began dosing 24 hours after being placed on DSS. Mice were weighed and scored daily for symptoms of disease (diarrhea, rectal bleeding, rectal inflammation, overall behavior). PX-04 was prepared within a 0.5% methylcellulose (12-15 cP) solution. Dosage used was 20 mg/kg delivered once daily. Dosage was calculated based off mean body weights for each gender. Oral dosage was delivered by orogastric gavage of dosage in 0.2 mL volume. Flow Cytometry. Colons were collected into RPMI/FBS buffer containing collagenase (300 U/mL) and DNase (50 U/mL) for digestion. Tissues were digested for 60 minutes under stirring at 37° C. Resultant cellular suspensions were filtered through 100 μm strainers, centrifuged (300×g, 8 min), and washed in fresh RPMI. Following filtration of the resulting single cell suspensions, immune cells were purified by Percoll gradient of cell-containing 40% Percoll overlayed onto 70% Percoll solution. After centrifugation, interphase was collected and washed to obtain enriched colonic lamina propria cell fractions. Cells were labeled with mixtures of extracellular (CD45, CD3, CD4, CD8, CD19, NK1.1, CD25, F4/80, CD11b, Gr1, CX3CR1, CD64) and intracellular (Tbet, RORγT, FOXP3, IFNγ, IL17, IL10) antibodies in a sequential live staining in 96-well plates. Data was acquired using a FACS Celesta flow cytometer with FACSDiva software.

The subject of assay [4] is rats with collagen-induced arthritis. The assay can be described thus: Collagen-induced arthritis in rats. The class given is in vivo, Lewis rats. How it is done: (§3) Models. Six-week-old C57Bl/6 mice were immunized with 200 μg of chicken collagen emulsified in complete Freund's adjuvant by intradermal injections at the base of the tail (n=8). Mice were treated with 5 mg/kg of PX-07 or vehicle daily for four weeks. Five- to six-week-old Lewis rats (n=8) were immunized with 200 μg of bovine collagen emulsified in incomplete Freund's adjuvant by intradermal injection into the base of the tail. A second boosting immunization was given after one week. PX-04 was administered daily at 2 or 20 mg/kg for 3 weeks.
(§4) Immunological analysis. Spleens were excised from mice and inguinal lymph nodes were excised from rats. Tissues were crushed and filtered to provide a cellular suspension. Red blood cells were lysed. Cells were labeled with mixtures of extracellular (CD45, CD3, CD4, CD8, B220, CD19, CD138, CD21, CD24, CD1d, CD11b, CD86, CD80) and intracellular (BCL6, IL21, IL10, TNF) antibodies in a sequential live staining in 96-well plates in preparation for flow cytometry. Data was captured on a BD FACS Celesta and analyzed using FACSDiva.

In assay [5] the test system is mice with collagen-induced arthritis. The assay can be described thus: Collagen-induced arthritis in mice. The class given is in vivo, C57Bl/6 mice. As to conditions: 5 mg/kg daily oral, four weeks. How it is done:
as §3, §4

Setting [6] is: 20 mg/kg oral, colonic lamina propria, day 7.
Setting [7] is: 2 and 20 mg/kg daily oral, 3 weeks, relative to vehicle.

Take `O=C(Nc1ccccc1)c1nc(-c2cccc(Oc3ccccc3)c2)c[nH]1` [PX-02, N-Phenyl-4-(m-phenoxyphenyl)-1H-imidazole-2-carboxamide]: the “significance of change in IFNγ/TNFα production relative to vehicle treated control” value in the assay on CD4+ T cells is listed as “only induced significant changes at 1 μM”.
For the compound `O=C(Nc1ccc2c(c1)COC2)c1ncc(-c2cccc(Oc3ccccc3)c2)[nH]1` [PX-04, N-(1,3-Dihydro-5-isobenzofuranyl)-5-(m-phenoxyphenyl)-1H-imidazole-2-carboxamide], in assay [1], the “IFNγ in the absence of PLXDC2” value is recorded as “no difference from vehicle” and the “TNFα in the absence of PLXDC2” value is on record as “no difference from vehicle”. Further, in assay [2], the “IFNγ in the supernatant” value is “greatly suppressed”, the “IL-6 in the supernatant” value is given as “greatly suppressed”, the “TNF in the supernatant” value is given as “greatly suppressed” and the “concentration of IL-10 in the supernatant” value is listed as “higher”. Besides, in assay [2], the “IL-10 expression by RNA” value was “slight increase” and the “expression of TNF by RNA” value was “inhibited”. Moreover, the “albumin/creatinine ratio in urine” value in assay [3] is listed as “significantly reduced”. Also, in the assay on CD4+ T cells (100 nM), the “reduction in IFNγ production” value was roughly 55%. For the same compound, in the assay with CD4+ T cells (1 μM), the “reduction in IFNγ production” value is listed as roughly 80%. Also, in the assay on CD4+ T cells, the “significance of change in IFNγ/TNFα production relative to vehicle treated control” value is given as “significant decrease at both tested concentrations”. Besides, the “proportion of splenic CD4+IL10+ T cells relative to vehicle-treated mice” value in the assay on NZB/W F1 mice (after 12 weeks) is given as “increased proportion”. The “proteinuria relative to baseline on average” value in the assay with NZB/W F1 mice (at 12 weeks of treatment) is “slight improvement”. The proteinuria grade result with NZB/W F1 mice (over 12 weeks) was “protected mice from the worsening”. In the assay with mice challenged with DSS (20 mg/kg once daily oral gavage, 7 days of DSS), the cumulative disease activity entry is reported as “decreased”. In the assay with mice challenged with DSS (setting [6]), the “Th17 cells in the colon” value is reported as “greatly decreased”, the “proportion of CD4+ T cells with IFNγ production” value was “lower proportion”, the “proportion of NK cells with IFNγ production” value is reported as “lower proportion” and the “proportion of TNF producing dendritic cells” value was “decreased”. Besides, the “regulatory CD4+ T cells in the colon” value in the assay on mice challenged with DSS (setting [6]) is “slight increase”. Moreover, the “histological severity of disease in hind ankles (joint space, cartilage erosion, leukocytic infiltration, angiogenesis)” value in assay [4] (2 mg/kg oral, relative to vehicle) is given as “reduced severity of disease”. Also, in assay [4] (setting [7]), the “gene expression of CXCL1 within the synovium” value was “reduced”, the “gene expression of IL-1β within the synovium” value is given as “reduced” and the “gene expression of IL-6 within the synovium” value is “reduced”. Also, in assay [4] (daily oral gavage, 3 weeks), the “ratio of TNF+ to IL10+ cells within CD4+ T cell fraction, inguinal lymph node” value is reported as “decreased” and the “ratio of TNF+ to IL10+ cells within myeloid cell fraction, inguinal lymph node” value was “decreased”.
Regarding `Cn1cccc(NC(=O)c2ncc(-c3cccc(Oc4ccccc4)c3)[nH]2)c1=O` [PX-07, N-(1-Methyl-2-oxo-1H-pyrid-3-yl)-5-(m-phenoxyphenyl)-1H-imidazole-2-carboxamide], in assay [1], the “IFNγ in the absence of PLXDC2” value is reported as “no difference from vehicle” and the “TNFα in the absence of PLXDC2” value is on record as “no difference from vehicle”. Moreover, in assay [2], the “IFNγ in the supernatant” value is “greatly suppressed”, the “IL-6 in the supernatant” value is “greatly suppressed”, the “TNF in the supernatant” value was “greatly suppressed” and the “concentration of IL-10 in the supernatant” value was “higher”. For the same compound, in assay [2], the “IL-10 expression by RNA” value was “slight increase” and the “expression of TNF by RNA” value was “inhibited”. In assay [3], the “albumin/creatinine ratio in urine” value is “significantly reduced”. Further, the “histological score of kidney damage (composite 0-9)” value in assay [3] (after 12 weeks of treatment) is reported as “significantly reduced”. The “reduction in IFNγ production” value with CD4+ T cells (100 nM) is given as roughly 55%. Also, the “reduction in IFNγ production” value in the assay on CD4+ T cells (1 μM) is roughly 80%. In addition, the “significance of change in IFNγ/TNFα production relative to vehicle treated control” value with CD4+ T cells is recorded as “significant decrease at both tested concentrations”. Further, in assay [5], the “proportion of CD1d+T2-MZP B cells in the spleen” value is on record as “increased” and the “proportion of T follicular helper cells (CD4+IL21+BCL6+) in the spleen” value is “decreased”.
`O=C(Nc1ccc[nH]c1=O)c1ncc(-c2cccc(Oc3ccccc3)c2)[nH]1` [PX-08, N-(2-Oxo-1H-pyrid-3-yl)-5-(m-phenoxyphenyl)-1H-imidazole-2-carboxamide]: in the assay on CD4+ T cells, the “significance of change in IFNγ/TNFα production relative to vehicle treated control” value is on record as “significant decrease at both tested concentrations”.
For `O=C(O)c1cccc(NC(=O)c2ncc(-c3cccc(Oc4ccccc4)c3)[nH]2)c1` [PX-09, m-[5-(m-Phenoxyphenyl)-1H-imidazol-2-ylcarbonylamino]benzoic acid], in the assay with CD4+ T cells, the “significance of change in IFNγ/TNFα production relative to vehicle treated control” value is recorded as “significant decrease at both tested concentrations”.
